Test results taken from article PMC11447909, “Substrate Specificity of a Methyltransferase Involved in the Biosynthesis of the Lantibiotic Cacaoidin” (Biochemistry, 2024).
Bridge positions count the residues as written; N and C are the ends. Square brackets hold non-standard residues; d marks the D form. Ends that are not written are not given here. Abu = CC[C@H](N)C(=O)O; Dhb = C/C=C(\N)C(=O)O; Dha = C=C(N)C(=O)O

Legend:
CaoSC = assay: In vitro methylation by His6-CaoSC with SAM (MALDI-TOF MS); format: biochemical, Streptomyces cacaoi CA-170360; settings: 50 μM peptide, 5 μM His6-CaoSC, 1 mM SAM, 20 mM HEPES pH 7.5, overnight, 37 °C
Description: For methylation, the 50 μL assay contained 50 μM peptide, 5 μM His6–CaoSC, and 1 mM SAM in 20 mM HEPES buffer (pH 7.5). After overnight reaction at 37 °C, the proteins were denatured by adding 5 μL of 2% TFA and centrifuged for 10 min at 4500 rpm in a microcentrifuge at room temperature. The supernatant was desalted using an EMD Millipore C18 ziptip, and the peptide was eluted and analyzed by MALDI-TOF MS as described above.

[1] = target: His6-CaoSC (methyltransferase of the cacaoidin biosynthetic gene cluster) (Streptomyces cacaoi CA-170360); assay: SEC; analytical SEC of purified His6-tagged CaoSC

Substance | methylation by CaoSC (number of methyl groups installed at N-terminus) (CaoSC) | stoichiometry N [1]
A[Dha]APATIK [synthetic 8-residue peptide with a dehydroamino acid at position 2] | not accepted | –
nisin (I[Dhb]AI[Dha]LC[Abu]PGCK[Abu]GALMGCNMK[Abu]A[Abu]CHCSIHV[Dha]K; thioether 8-11, 13-19, 23-26, 25-28, 3-7; not fully specified (residues 7, 11, 19, 26, 28); UniProt P13068 24-57, looked up) [class I lanthipeptide, 34 residues, three dehydroamino acids, five Lan/MeLan rings; purchased from Sigma-Aldrich] | monomethylated | –
His6-CaoSC (methyltransferase of the cacaoidin biosynthetic gene cluster) (enzyme) | – | 2
